According to ChEMBL document CHEMBL5537142 (Eur J Med Chem, 2024):
≈ marks a conversion by molar mass, not a printed value. Values belong to the compound of their own block, whether it stands above or below them. Calls of active or inactive are those of the source. No cut-off for these calls is given here.

What was measured:
[1] = test system: MCF7; assay: Inhibition of cell viability in human MCF7 cells at 100 uM incubated for 72 hrs by resazurin based assay; assay type: functional
[2] = Solubility of compound incubated for 5 mins by absorbance based assay; assay type: physicochemical
[3] = test system: MDA-MB-468; assay: Inhibition of cell viability in human MDA-MB-468 cells at 100 uM incubated for 72 hrs by resazurin based assay; assay type: functional
[4] = test system: MDA-MB-231; assay: Inhibition of cell viability in human MDA-MB-231 cells at 100 uM incubated for 72 hrs by resazurin based assay; assay type: functional
[5] = test system: MDA-MB-468; assay: Induction of cell death in human MDA-MB-468 cells at 0.05 to 200 uM incubated for 72 hrs by resazurin based assay; assay type: functional; settings: dose 0.05-200 µM
[6] = test system: MDA-MB-231; assay: Induction of cell death in human MDA-MB-231 cells at 0.05 to 200 uM incubated for 72 hrs by resazurin based assay; assay type: functional; settings: dose 0.05-200 µM
[7] = test system: MCF7; assay: Induction of cell death in human MCF7 cells at 0.05 to 200 uM incubated for 72 hrs by resazurin based assay; assay type: functional; settings: dose 0.05-200 µM
[8] = test system: MDA-MB-468; assay: Inhibition of cell viability in human MDA-MB-468 cells upto 100 uM incubated for 72 hrs by resazurin based assay relative to control; assay type: functional; settings: up to 100 µM
[9] = test system: MDA-MB-231; assay: Inhibition of cell viability in human MDA-MB-231 cells upto 100 uM incubated for 72 hrs by resazurin based assay relative to control; assay type: functional; settings: up to 100 µM
[10] = test system: MCF7; assay: Inhibition of cell viability in human MCF7 cells upto 100 uM incubated for 72 hrs by resazurin based assay relative to control; assay type: functional; settings: up to 100 µM
[11] = test system: MDA-MB-468; assay: Cytotoxicity against human MDA-MB-468 cells assessed as cell viability at 100 uM incubated for 72 hrs by resazurin based assay relative to control; assay type: functional; settings: read-out: Activity
[12] = test system: MDA-MB-231; assay: Cytotoxicity against human MDA-MB-231 cells assessed as cell viability at 100 uM incubated for 72 hrs by resazurin based assay relative to control; assay type: functional; settings: read-out: Activity
[13] = test system: MCF7; assay: Cytotoxicity against human MCF7 cells assessed as cell viability at 100 uM incubated for 72 hrs by resazurin based assay relative to control; assay type: functional; settings: read-out: Activity
[14] = biological target: T1, Dihydrofolate reductase (Homo sapiens) (UniProt P00374); settings: MDA-MB-468, dose 10.0 nM, time 24.0 hrs
T1 sequence (whole entry): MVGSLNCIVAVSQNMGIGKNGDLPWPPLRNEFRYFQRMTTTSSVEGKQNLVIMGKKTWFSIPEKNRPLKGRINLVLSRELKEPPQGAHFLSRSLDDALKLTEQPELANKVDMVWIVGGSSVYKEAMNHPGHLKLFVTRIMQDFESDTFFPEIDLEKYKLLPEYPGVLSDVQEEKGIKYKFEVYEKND

[15] = biological target: T1, Dihydrofolate reductase (Homo sapiens); settings: MDA-MB-468, dose 1.0 nM, time 24.0 hrs

Structure (SMILES): Cc1ccc(-c2cnc(N)nc2N)cc1
inhibition [1]: inactive

solubility at 5 min [2]: > 100 µM
Structure (SMILES): Nc1ncc(-c2ccc(Cl)c([N+](=O)[O-])c2)c(N)n1

solubility at 5 min [2]: > 100 µM
Structure (SMILES): Nc1ncc(-c2ccc3ccccc3c2)c(N)n1
inhibition [3]: Active | inhibition [4]: Active | inhibition [1]: Active | Activity [5]: Active | Activity [6]: Active | Activity [7]: Active

solubility at 5 min [2]: > 100 µM
Structure (SMILES): COc1cc(-c2cnc(N)nc2N)ccc1C

Structure (SMILES): CC(C)(C)c1ccc(-c2cnc(N)nc2N)cc1
inhibition [3]: Active

solubility at 5 min [2]: > 100 µM
Structure (SMILES): Nc1ncc(-c2ccc(Cl)c(Cl)c2)c(N)n1

solubility at 5 min [2]: > 100 µM
Structure (SMILES): Nc1ncc(-c2cccc(Cl)c2)c(N)n1

Structure (SMILES): Nc1ncc(-c2ccc(Cl)c(F)c2)c(N)n1
inhibition [1]: inactive

solubility at 5 min [2]: ~10 µM (≈ 3.5 µg/mL)
Structure (SMILES): CN(Cc1ccccc1)c1ccc(-c2cnc(N)nc2N)cc1[N+](=O)[O-]
inhibition [1]: inactive

solubility at 5 min [2]: > 100 µM
Structure (SMILES): Nc1ncc(-c2ccc(N3CCCC3)c([N+](=O)[O-])c2)c(N)n1
inhibition [3]: Active | inhibition [4]: Active | inhibition [1]: Active | Activity [5]: Active | Activity [6]: Active | Activity [7]: Active

solubility at 5 min [2]: > 100 µM
Structure (SMILES): NCCCCCCNc1ccc(-c2cnc(N)nc2N)cc1[N+](=O)[O-]
inhibition [3]: Active | inhibition [4]: Active | inhibition [1]: Active | Activity [5]: Active | Activity [6]: Active | Activity [7]: Active

Structure (SMILES): Nc1ncc(-c2ccc(F)cc2Br)c(N)n1
inhibition [3]: inactive | inhibition [4]: inactive | inhibition [1]: inactive

solubility at 5 min [2]: ~10 µM (≈ 3.66 µg/mL)
Structure (SMILES): COc1ccc(CNc2ccc(-c3cnc(N)nc3N)cc2[N+](=O)[O-])cc1
inhibition [3]: Active | inhibition [4]: Active | inhibition [1]: Active | Activity [5]: Active | Activity [6]: Active | Activity [7]: Active

solubility at 5 min [2]: > 100 µM
Structure (SMILES): CC(C)c1ccc(-c2cnc(N)nc2N)cc1
inhibition [1]: inactive

Structure (SMILES): CCc1nc(N)nc(N)c1-c1ccc(Cl)cc1 [PYRIMETHAMINE]
inhibition (INH) [8]: ~50% | inhibition (INH) [9]: ~50% | inhibition (INH) [10]: ~50% | viability at 100 µM [11]: ~50% | viability at 100 µM [12]: ~50% | viability at 100 µM [13]: ~50% | solubility at 5 min [2]: > 100 µM | inhibition [14]: Active | inhibition [15]: 40%
